Key:
Assay type in all cases: functional
[1] = tested on: M14; experiment: Growth inhibition of human M14 cells assessed as cell growth at 10^-8 M incubated for 48 hrs by sulforhodamine B assay relative to control; conditions: M14, 48 h, read-out: Activity
[2] = tested on: MDA-MB-435; experiment: Growth inhibition of human MDA-MB-435 cells assessed as cell growth at 10^-8 M incubated for 48 hrs by sulforhodamine B assay relative to control; conditions: MDA-MB-435, 48 h, read-out: Activity
[3] = tested on: SN12C; experiment: Growth inhibition of human SN12C cells assessed as cell growth at 10^-8 M incubated for 48 hrs by sulforhodamine B assay relative to control; conditions: read-out: Activity
[4] = tested on: TK-10; experiment: Growth inhibition of human TK10 cells assessed as cell growth at 10^-8 M incubated for 48 hrs by sulforhodamine B assay relative to control; conditions: TK-10, 48 h, read-out: Activity
[5] = tested on: UO-31; experiment: Growth inhibition of human UO31 cells assessed as cell growth at 10^-8 M incubated for 48 hrs by sulforhodamine B assay relative to control; conditions: UO-31, 48 h, read-out: Activity
[6] = tested on: Hs-578T; experiment: Growth inhibition of human Hs 578T cells assessed as cell growth at 10^-8 M incubated for 48 hrs by sulforhodamine B assay relative to control; conditions: read-out: Activity
[7] = tested on: BT-549; experiment: Growth inhibition of human BT549 cells assessed as cell growth at 10^-8 M incubated for 48 hrs by sulforhodamine B assay relative to control; conditions: BT-549, 48 h, read-out: Activity
[8] = tested on: MOLT-4; experiment: Growth inhibition of human MOLT4 cells assessed as cell growth at 10^-7 M incubated for 48 hrs by sulforhodamine B assay relative to control; conditions: MOLT-4, 48 h, read-out: Activity
[9] = tested on: RPMI-8226; experiment: Growth inhibition of human RPMI8226 cells assessed as cell growth at 10^-7 M incubated for 48 hrs by sulforhodamine B assay relative to control; conditions: RPMI-8226, 48 h, read-out: Activity
[10] = tested on: HOP-62; experiment: Growth inhibition of human HOP62 cells assessed as cell growth at 10^-7 M incubated for 48 hrs by sulforhodamine B assay relative to control; conditions: HOP-62, 48 h, read-out: Activity
[11] = tested on: HCT-116; experiment: Growth inhibition of human HCT116 cells assessed as cell growth at 10^-7 M incubated for 48 hrs by sulforhodamine B assay relative to control; conditions: HCT-116, 48 h, read-out: Activity
[12] = tested on: KM12; experiment: Growth inhibition of human KM12 cells assessed as cell growth at 10^-7 M incubated for 48 hrs by sulforhodamine B assay relative to control; conditions: KM12, 48 h, read-out: Activity
[13] = tested on: SNB-75; experiment: Growth inhibition of human SNB75 cells assessed as cell growth at 10^-7 M incubated for 48 hrs by sulforhodamine B assay relative to control; conditions: SNB-75, 48 h, read-out: Activity
[14] = tested on: U-251; experiment: Growth inhibition of human U251 cells assessed as cell growth at 10^-7 M incubated for 48 hrs by sulforhodamine B assay relative to control; conditions: U-251, 48 h, read-out: Activity
[15] = tested on: IGROV-1; experiment: Growth inhibition of human IGROV1 cells assessed as cell growth at 10^-7 M incubated for 48 hrs by sulforhodamine B assay relative to control; conditions: IGROV-1, 48 h, read-out: Activity
[16] = tested on: ACHN; experiment: Growth inhibition of human ACHN cells assessed as cell growth at 10^-7 M incubated for 48 hrs by sulforhodamine B assay relative to control; conditions: read-out: Activity
[17] = tested on: SN12C; experiment: Growth inhibition of human SN12C cells assessed as cell growth at 10^-7 M incubated for 48 hrs by sulforhodamine B assay relative to control; conditions: read-out: Activity
[18] = tested on: MDA-MB-468; experiment: Growth inhibition of human MDA-MB-468 cells assessed as cell growth at 10^-7 M incubated for 48 hrs by sulforhodamine B assay relative to control; conditions: MDA-MB-468, 48 h, read-out: Activity
[19] = tested on: NCI-H226; experiment: Growth inhibition of human NCI-H226 cells assessed as cell growth at 10^-6 M incubated for 48 hrs by sulforhodamine B assay relative to control; conditions: NCI-H226, 48 h, read-out: Activity
[20] = tested on: NCI-H322M; experiment: Growth inhibition of human NCI-H322M cells assessed as cell growth at 10^-6 M incubated for 48 hrs by sulforhodamine B assay relative to control; conditions: read-out: Activity
[21] = tested on: NCI-H460; experiment: Growth inhibition of human NCI-H460 cells assessed as cell growth at 10^-6 M incubated for 48 hrs by sulforhodamine B assay relative to control; conditions: NCI-H460, 48 h, read-out: Activity
[22] = tested on: HCT-116; experiment: Growth inhibition of human HCT116 cells assessed as cell growth at 10^-6 M incubated for 48 hrs by sulforhodamine B assay relative to control; conditions: HCT-116, 48 h, read-out: Activity
[23] = tested on: HCT-15; experiment: Growth inhibition of human HCT15 cells assessed as cell growth at 10^-6 M incubated for 48 hrs by sulforhodamine B assay relative to control; conditions: HCT-15, 48 h, read-out: Activity
[24] = tested on: Malme-3M; experiment: Growth inhibition of human MALME-3M cells assessed as cell growth at 10^-6 M incubated for 48 hrs by sulforhodamine B assay relative to control; conditions: read-out: Activity
[25] = tested on: IGROV-1; experiment: Growth inhibition of human IGROV1 cells assessed as cell growth at 10^-6 M incubated for 48 hrs by sulforhodamine B assay relative to control; conditions: IGROV-1, 48 h, read-out: Activity
[26] = tested on: 786-0; experiment: Growth inhibition of human 786-0 cells assessed as cell growth at 10^-6 M incubated for 48 hrs by sulforhodamine B assay relative to control; conditions: 786-0, 48 h, read-out: Activity
[27] = tested on: UO-31; experiment: Growth inhibition of human UO31 cells assessed as cell growth at 10^-6 M incubated for 48 hrs by sulforhodamine B assay relative to control; conditions: UO-31, 48 h, read-out: Activity
[28] = tested on: PC-3; experiment: Growth inhibition of human PC3 cells assessed as cell growth at 10^-6 M incubated for 48 hrs by sulforhodamine B assay relative to control; conditions: PC-3, 48 h, read-out: Activity
[29] = tested on: BT-549; experiment: Growth inhibition of human BT549 cells assessed as cell growth at 10^-6 M incubated for 48 hrs by sulforhodamine B assay relative to control; conditions: BT-549, 48 h, read-out: Activity
[30] = tested on: SF-268; experiment: Growth inhibition of human SF268 cells assessed as cell growth at 10^-5 M incubated for 48 hrs by sulforhodamine B assay relative to control; conditions: SF-268, 48 h, read-out: Activity
[31] = tested on: OVCAR-4; experiment: Growth inhibition of human OVCAR4 cells assessed as cell growth at 10^-5 M incubated for 48 hrs by sulforhodamine B assay relative to control; conditions: OVCAR-4, 48 h, read-out: Activity
[32] = tested on: OVCAR-8; experiment: Growth inhibition of human OVCAR8 cells assessed as cell growth at 10^-5 M incubated for 48 hrs by sulforhodamine B assay relative to control; conditions: OVCAR-8, 48 h, read-out: Activity
[33] = tested on: HCT-116; experiment: Growth inhibition of human HCT116 cells assessed as cell growth at 10^-4 M incubated for 48 hrs by sulforhodamine B assay relative to control; conditions: HCT-116, 48 h, read-out: Activity
[34] = tested on: SK-MEL-2; experiment: Growth inhibition of human SK-MEL-2 cells assessed as cell growth at 10^-4 M incubated for 48 hrs by sulforhodamine B assay relative to control; conditions: SK-MEL-2, 48 h, read-out: Activity

## CCCCOc1nc2ccccc2cc1C1CNC(=O)c2ccccc2N1 (centres undefined)
[1]
  growth at 0.01 µM: 96%
[2]
  growth at 0.01 µM: 95%
[3]
  growth at 0.01 µM: 97%
[4]
  growth at 0.01 µM: 75%
[5]
  growth at 0.01 µM: 80%
[6]
  growth at 0.01 µM: 89%
[7]
  growth at 0.01 µM: 105%
[8]
  growth at 0.1 µM: 94%
[9]
  growth at 0.1 µM: 98%
[10]
  growth at 0.1 µM: 98%
[11]
  growth at 0.1 µM: 101%
[12]
  growth at 0.1 µM: 98%
[13]
  growth at 0.1 µM: 89%
[14]
  growth at 0.1 µM: 96%
[15]
  growth at 0.1 µM: 92%
[16]
  growth at 0.1 µM: 98%
[17]
  growth at 0.1 µM: 90%
[18]
  growth at 0.1 µM: 93%
[19]
  growth at 1 µM: 92%
[20]
  growth at 1 µM: 86%
[21]
  growth at 1 µM: 94%
[22]
  growth at 1 µM: 75%
[23]
  growth at 1 µM: 69%
[24]
  growth at 1 µM: 62%
[25]
  growth at 1 µM: 86%
[26]
  growth at 1 µM: 90%
[27]
  growth at 1 µM: 61%
[28]
  growth at 1 µM: 89%
[29]
  growth at 1 µM: 84%
[30]
  growth at 10 µM: 31%
[31]
  growth at 10 µM: 37%
[32]
  growth at 10 µM: 12%
[33]
  growth at 100 µM: -67%
[34]
  growth at 100 µM: -15%
